{
  "source": "patent US20020172935A1",
  "about": "“Methods of screening for compounds that modulate blood vessel formation from circulating endothelial cell precursors” (priority 2000, published 2002)",
  "system": "murine allantois",
  "assay": "Allantois explant culture: de novo vascular development, immunolabeling and confocal analysis",
  "type": "cell-based, mouse",
  "experimental": "Allantoides of 7.5dpc embryos were excised, washed in EPBS (4° C.) and then pipetted into Nunc 4 chambered culture slides (Fisher Scientific Co., Suwanee, Ga.) containing 0.4 ml of DMEM, 10% Fetal Bovine Serum, and 1% Penicillin Streptomycin. Explants were cultured at 37° C. in a 5% CO2 incubator for 12-20 hours and then fixed and permeabilized as described above. The explants were blocked in 3% BSA/PBSA 12-18 hrs, exposed to PECAM antibodies (1.5 hours, 26° C.), washed 3×40 minutes in PBSA, incubated in appropriate secondary antibodies (1.5 hours, 26° C.), washed in PBSA 3×30 minutes, and mounted as described above.\nEmbryos were analyzed using a Bio-Rad MRC 1024 Laser Scanning Confocal Microscope (Bio-Rad Microscopy Division, Cambridge, Mass.). Optical sectioning along the dorsoventral axis (Z-axis) was performed and the images collapsed into a single focal plane using manufacturer's software. Differential Interference Contrast (DIC) images were generated using a research grade Leitz™ photomicroscope equipped with a Photometrics™ (Tucson, Ariz.) Quantix CCD camera. Images were processed using NIH Image 1.62 software (NIH, Bethesda, Md.) and Adobe Photoshop 5.0 (Adobe Systems, Inc., San Jose, Calif.). […]",
  "data": [
    {"substance": "VEGF", "values": [
      {"measurement": "vascular pattern (PECAM immunolabeling)", "setting": "7.0 dpc allantois cultured 24 hours with VEGF 2 μg/ml (FIG. 3c)", "result": "overall sinusoidal vascular pattern"},
      {"measurement": "vascular phenotype", "setting": "allantois cultures, recombinant VEGF 2 μg/ml, 24 hr", "result": "hyperfused vascular phenotype"}
    ]}
  ]
}
